{"source": "patent US12226443B2", "about": "“Polyphenol composition and method of its use and manufacture in the treatment of metabolic disorders” (Vidya Herbs, Inc., priority 2018, dated 2025)", "assay": "DPPH scavenging assay", "details": "composition at 100 μg/ml", "description": "The free radical scavenging capacity of the composition was determined using DPPH scavenging assay (Braca et al. 2001). DPPH solution was prepared in 95% methanol. Freshly prepared DPPH solution was taken in test tubes and different concentration of the composition (20-100 μg/mL) were added and incubated for 20 min. The absorbance was read at 517 nm using a spectrophotometer. Blank was prepared containing the same volume of reaction mixture without any test samples. The percentage of scavenging was calculated using formula: % Scavenging=Ac−As/Ac×100 Where AC was the absorbance of the control (blank without extract) and As was the absorbance in the presence of the extract.", "data": [{"smiles": "O=C1O[C@H]([C@@H](O)CO)C(O)=C1O", "note": "[ascorbic acid]", "values": [{"measurement": "DPPH radical scavenging, maximum activity", "result": 96.71, "unit": "%"}]}]}
